Data as given in patent US5714142A, “Method and compositions for increasing the serum half-life of pharmacologically active agents by binding to transthyretin-selective ligands” (priority 1996, dated 1998).
Like-named read-outs stand apart in the source and are kept apart here.

Experiments:
TTR (transthyretin) = TTR (transthyretin) (Homo sapiens, UniProt P02766); assay: percent inhibition of radiolabelled T4 binding to TTR (procedure of R. Somack et al.); conditions: for inhibition at 10 µM: read-out: ~% T4 (percent inhibition of radiolabelled T4 binding to TTR); for inhibition at 1 µM: [I] 1 uM
Source text: Results are set forth in the following table, wherein "%T4 " represents the percent inhibition of radiolabelled T4 binding to TTR".

[1] = cited from earlier work
human astrocytoma cells = conditions: C. M. Divino et al. 1990; cited from earlier work

O=C(O)Cc1cc(I)c(Oc2cc(I)c(O)c(I)c2)c(I)c1
inhibition at 10 µM (TTR (transthyretin); [I] 10 uM): ~90%

Oc1c(I)cc(I)cc1I
inhibition at 10 µM (TTR (transthyretin)): ~90%

O=C(O)CCc1cc(I)c(O)c(I)c1
inhibition at 10 µM (TTR (transthyretin); [I] 10 uM): ~80%

OCCc1cc(I)c(O)c(I)c1
inhibition at 10 µM (TTR (transthyretin); [I] 10 uM): ~85%

superoxide dismutase
half-life ([1]; unconjugated, G. D. Mao et al. 1989): five

O=C(O)Cc1cc(I)c(O)c(I)c1
inhibition at 10 µM (TTR (transthyretin); [I] 10 uM): ~70%

CC(C)(C)OC(=O)NCCOCCOCCNC(=O)Cc1cc(I)c(O)c(I)c1
inhibition at 10 µM (TTR (transthyretin); [I] 10 uM): ~45%

NCCOCCOCCNC(=O)Cc1cc(I)c(O)c(I)c1
inhibition at 10 µM (TTR (transthyretin); [I] 10 uM): ~25%

OCc1cc(I)c(O)c(I)c1
inhibition at 1 µM (TTR (transthyretin)): ~70%

NCCCCCCNC(=O)Cc1cc(I)c(O)c(I)c1
inhibition at 10 µM (TTR (transthyretin); [I] 10 uM): ~15%

O=C(Cc1cc(I)c(O)c(I)c1)OCC#CCO
inhibition at 10 µM (TTR (transthyretin); [I] 10 uM): ~90%

CC(C)(C)OC(=O)NCCCCCCNC(=O)Cc1cc(I)c(O)c(I)c1
inhibition at 10 µM (TTR (transthyretin); [I] 10 uM): ~40%

O=C(O)c1ccc(-c2cc(I)c(O)c(I)c2)cc1
inhibition at 1 µM (TTR (transthyretin)): ~80%

transthyretin
t1/2 ([1]; up to about): up to two
binding to cell sites (human astrocytoma cells): binds to specific high affinity sites on human astrocytoma cells
